Some results are limits rather than exact numbers.

Assay [1] concerns the target hD2R (Homo sapiens (Human), UniProt P14416). As to the kind of experiment: [3H]N-methylspiperone competition binding, D2R. The following applies: HEK 293 membranes, read-out: Ki (nM) ± SEM D2R.
The target in assay [2] is hD4R (Homo sapiens (Human), UniProt P21917). As to the kind of experiment: [3H]N-methylspiperone competition binding, D4R. Conditions: for Ki: HEK 293 membranes, [3H]N-methylspiperone, read-out: Ki (nM) ± SEM D4R; for Selectivity D2R/D4R / Selectivity D3R/D4R: ratio of Ki values.
Assay [3] addresses hD3R (Homo sapiens (Human), UniProt P35462). The following applies: read-out: Ki (nM) ± SEM D3R; HEK 293 membranes, [3H]N-methylspiperone.
Assay [4] deals with cocaine intake. The following applies: monkeys; cited from earlier work.

Chain of hD4R (P21917 whole entry): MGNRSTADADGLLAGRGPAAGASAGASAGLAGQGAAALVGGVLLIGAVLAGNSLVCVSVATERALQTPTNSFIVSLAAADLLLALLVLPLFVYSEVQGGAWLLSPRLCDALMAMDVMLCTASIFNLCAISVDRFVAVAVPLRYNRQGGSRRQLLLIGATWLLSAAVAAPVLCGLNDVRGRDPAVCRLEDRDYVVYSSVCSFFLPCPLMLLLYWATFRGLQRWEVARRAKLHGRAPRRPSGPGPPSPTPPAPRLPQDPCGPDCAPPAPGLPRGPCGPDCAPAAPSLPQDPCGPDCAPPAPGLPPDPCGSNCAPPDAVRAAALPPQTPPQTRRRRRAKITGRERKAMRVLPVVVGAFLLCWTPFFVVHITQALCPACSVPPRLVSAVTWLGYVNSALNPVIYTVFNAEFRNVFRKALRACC
Chain of hD2R (P14416 whole entry): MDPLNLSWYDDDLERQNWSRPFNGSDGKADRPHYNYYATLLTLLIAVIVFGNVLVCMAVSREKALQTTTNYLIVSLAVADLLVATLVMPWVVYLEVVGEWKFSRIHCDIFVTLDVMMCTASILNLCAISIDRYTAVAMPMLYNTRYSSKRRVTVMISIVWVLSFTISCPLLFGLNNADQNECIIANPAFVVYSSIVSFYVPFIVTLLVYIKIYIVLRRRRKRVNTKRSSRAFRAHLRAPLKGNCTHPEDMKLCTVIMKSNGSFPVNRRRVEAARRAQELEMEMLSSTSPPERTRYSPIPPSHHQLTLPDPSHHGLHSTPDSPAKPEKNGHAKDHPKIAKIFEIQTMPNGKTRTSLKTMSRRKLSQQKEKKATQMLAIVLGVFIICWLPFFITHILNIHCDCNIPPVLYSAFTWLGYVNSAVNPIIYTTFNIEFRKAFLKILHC
Chain of hD3R (P35462 whole entry): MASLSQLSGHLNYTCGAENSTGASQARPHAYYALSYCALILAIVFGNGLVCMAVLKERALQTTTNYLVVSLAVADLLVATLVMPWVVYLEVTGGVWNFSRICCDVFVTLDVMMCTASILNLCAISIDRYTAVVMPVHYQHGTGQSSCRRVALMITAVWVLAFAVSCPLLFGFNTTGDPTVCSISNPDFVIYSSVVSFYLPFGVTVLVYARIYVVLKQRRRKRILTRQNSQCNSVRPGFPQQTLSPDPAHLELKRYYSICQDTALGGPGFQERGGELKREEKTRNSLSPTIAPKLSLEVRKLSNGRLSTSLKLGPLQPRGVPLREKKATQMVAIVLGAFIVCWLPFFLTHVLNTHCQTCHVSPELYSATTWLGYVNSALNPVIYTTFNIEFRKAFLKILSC

As usually defined, the Ki is the dissociation constant of the complex between target and ligand, obtained from inhibition or displacement. Turning to `CCc1ccnc(C2CCN(CCCc3nc4ccccc4s3)CC2)c1` [Compound 19], the inhibition constant Ki in assay [1] came out at 12300 ± 7670 nM. Moreover, in assay [2], the Ki was found to be 5.89 nM, the “Selectivity D2R/D4R” value was found to be 2082 and the “Selectivity D3R/D4R” value stood at 2838. In assay [3], the Ki amounted to 16700 ± 13300 nM.
Consider `Cc1cccc2nc(CCCN3CCC(c4ccccn4)CC3)sc12` [Compound 15], for which the Ki in assay [1] stood at 18000 ± 15200 nM. In assay [2], the “D4R binding selectivity vs. D2R and D3R (other D2-like receptors)” value is greater than 15907 fold; the Ki is 1.13 ± 0.27 nM; the “Selectivity D2R/D4R” value turned out to be 15907; the “Selectivity D3R/D4R” value came out at 32756. The Ki in assay [3] worked out at 37100 ± 30300 nM.
With Ro10-5824, in assay [4], the cocaine intake result is “reduced cocaine intake”.
`c1ccc(-c2ncc(CN3CCN(c4ncccn4)CC3)[nH]2)cc1` [NGD-94-1]: the cocaine intake entry in assay [4] was “reduced cocaine intake”.

These data come from US12122771B2, “Compounds useful for treatment of substance use disorder” (HIGH POINT UNIVERSITY, priority 2021, dated 2024).
